In patent US20130217765A1, “MULTIFUNCTIONAL NANOCONJUGATES AND USES THEREOF” (priority 2012, published 2013):

How the values were obtained:
plasmid DNA = assay: Plasmid DNA nicking by agarose gel electrophoresis after light exposure; format: biochemical; details: visible light, 150 W halogen bulb, 10 min
Method: The effect of visible light activated ARS-coated TiO2 nanoparticles was assessed by illuminating plasmid containing samples with a Fiber-Lite MI-150High Intensity Fiber Optic EKE 150 W21VHalogen Light Illuminator (Dolan-Jenner Industries, Boxborough, Mass., USA) for 10 min. […] All samples were then run on a 1.25% agarose gel at 60V for 4 h, stained with GelStar (Lonza, Mapleton, Ill., USA), and imaged on a Kodak Gel Logic 2200 Imaging System (Kodak, Rochester, N.Y., USA).
Considering these factors, we sought to determine the effect of visible light activated ARS-coated TiO2 nanoparticles on plasmid DNA integrity using a standard agarose gel electrophoresis technique developed by others. According to this assay, nicked (single-stranded DNA break), linear (double-stranded DNA break), and supercoiled (undamaged) plasmid DNA can be distinguished on an agarose gel by viewing differences in mobility (with the nicked plasmid DNA migrating at the slowest rate and supercoiled plasmid DNA migrating at the fastest rate) [13,15]. Samples were prepared that contained plasmid DNA and either (1) dH2O, (2) ARS, (3) TiO2 nanoparticles, or (4) ARS-coated TiO2 nanoparticles. […]

[1] = test system: kanamycin-resistant E. coli; assay: Bacterial assay: incubation with samples, halogen light, plating on kanamycin LB agar; format: cell-based; details: incubated 10 minutes, 150 W halogen bulb 10 minutes, plated overnight at 37° C.
Method: When using dye-coated TiO2 nanoconjugates to inflict damage on bacteria, the dye alizarin red s was used (FIG. 24). The following protocol was used: a bacterial culture of kanamycin-resistant E. coli was grown overnight at 37° C. at 250 rpm and then stored at 4° C. for later use in the experiment. Aliquots of the starter bacterial culture were then incubated with either (1) dH2O, (2) alizarin red s, (3) 6 nm TiO2 nanoparticles, or (4) alizarin red s-coated-6 nm TiO2 nanoconjugates for 10 minutes. All samples were then exposed to a 150 W halogen bulb for 10 minutes and plated on kanamycin-containing LB agar plates, incubated overnight at 37° C., and photographed with a digital camera.

emerin = assay: Emerin integrity and distribution in HeLa cells, fluorescence confocal microscopy; format: cell-based; details: regardless of light treatment
Method: (§1) HeLa cells were grown on #1 glass coverslips to approximately 20% confluence and then exposed to ARS-coated TiO2 nanoparticles or appropriate controls overnight. Respective samples were either exposed to no light or light with a Fiber-Lite MI-150 High Intensity Fiber Optic 150 W Halogen Light Illuminator for 10 min. All samples were fixed in 3.6% formaldehyde (Fisher Scientific, Waltham, Mass., USA) and permeabilized in 0.2% Triton-100× (Fisher Scientific) for 10 min. Cells were then stained with either a mouse monoclonal to emerin primary antibody (Abcam, Cambridge, Mass., USA) followed by an Alexa488 goat anti-mouse IgG (H+L) secondary antibody (Invitrogen, Grand Island, N.Y., USA) or a chicken polyclonal to lamin B1 primary antibody (Abcam) followed by an Alexa488 goat anti-chicken IgG (H+L) secondary antibody (Invitrogen). All samples were then stained with Hoechst 33342 (Sigma) and coverslips were mounted in P-phenylenediamine containing mounting media. Samples were imaged on an Olympus IX81-UCB Spinning Disc Confocal Microscope (Olympus, Center Valley, Pa., USA) using a 100 W mercury burner (Ushio, Tokyo, Japan), Brightline filters for DAPI, FITC, and TEXAS RED (Semrock, Rochester, N.Y., USA), and an ORCA-ER-1394 high-resolution digital camera (Hamamatsu, Japan). All images are presented as […] optical slice fluorescence overlays in either two or three dimensions. […]

lamin B1 = assay: Lamin B1 integrity and distribution in HeLa cells, fluorescence confocal microscopy; format: cell-based; details: light or no light
Method: as §1

HeLa cells = assay: Duration of light exposure on HeLa cells treated with dye-modified TiO2 nanoparticles; format: cell-based; details: dark or 30 minutes of 750 W halogen visible light, fixed 24 hours post exposure
Method: In this Example, we tested the duration of light exposure on cells treated with dye-modified TiO2 nanoparticles. […] Cells were fixed in 4% formaldehyde 24 hours post exposure and 1 μm slices fluorescence confocal images are presented. […] The cellular response is heterogeneous.

O=C1c2ccccc2C(=O)c2c1cc(S(=O)(=O)[O-])c(O)c2O.[Na+] [ARS, alizarin red s]
nicking of plasmid DNA (plasmid DNA): slight expected increase in nicked plasmid DNA
bacterial growth (colonies on plate) [1]: bacterial colonies are witnessed
emerin integrity and distribution (emerin): normal emerin integrity and distribution
lamin B1 integrity and distribution (lamin B1): normal lamin B1 integrity and distribution

alizarin blue black b [ABBB]
cellular responses (HeLa cells): no detectable cellular responses
